{"source": "patent EP0306971A2", "about": "“Use of milk fat globules as carriers for drugs and as microflotation devices in immunoassays and cell/molecular fractionation” (Bankert, Richard B., priority 1987, dated 1989)", "experiment": "incorporation of adriamycin into MFG, by difference, spectrofluorometric determination", "format": "physicochemical", "settings": "0.9 ml packed MFG with 0.1 ml adriamycin 1 mg/ml in PBS, overnight at room temperature", "description": "The milk fat globules to be loaded with drug are obtained from raw bovine milk by centrifugation at 1,500 x g for 10 min at room temperature followed by removal of the underlying (sub-natant) aqueous material. The MFG is washed three times by the addition of phosphate buffered saline, pH 7.4 (PBS) to the original volume followed by centrifugation at 1500 x g for 10 min and removal of the sub-natant fluid. Adriamycin is rapidly and stably loaded into the MFG very efficiently by incubating 0.9 ml packed MFG with 0.1 ml adriamycin, dissolved in PBS to a concentration of 1 mg/ml, overnight at room temperature. The resultant MFG is then transferred to a 10 ml syringe fitted with a stopcock, brought to 10 ml with PBS and centrifuged at 1500 x g for 10 min. The sub-natant fluid is removed by opening the stopcock and the milk fat globule layer is washed three times by gentle suspension in PBS followed by centrifugation. […] The presence of adriamycin is detected in the MFG by its fluorescence emission at 590 nm using fluorescence microscopy. Alternatively, the amount of incorporated adriamycin can be calculated by difference, after determination of the amount of adriamycin remaining in the first sub-natant fraction by spectrofluorometric determination using an excitation wavelength of 470 nm and an emission wavelength of 590 nm. […]"}
{"compound": "COc1cccc2c1C(=O)c1c(O)c3c(c(O)c1C2=O)C[C@@](O)(C(=O)CO)C[C@@H]3O[C@H]1C[C@H](N)[C@H](O)[C@H](C)O1", "note": "[adriamycin]", "values": [{"measurement": "added drug incorporated into the MFG", "result": "up to 80%"}]}
